Where two headings read alike, the source gives them in different places.
Tests used:
Experiment in all cases: Radiolabeled ATP kinase assay, panel of 371 kinases (Table S6)
Assay type in all cases: biochemical
[1] = biological target: T1, panel of 371 human kinases (Homo sapiens, UniProt Q6P3R8); conditions: NEK5; 0.1 μM; 10 μM ATP; read-out: % Enzyme Activity (relative to DMSO controls)
T1 construct: purchased Reaction Biology Corp
Description: (§1) ; FIG. 38C). […]. Further targeted analyses, such as genetic knock-down or knock-out, may be warranted to parse the role of these additional kinases in our model of neurodegeneration.

[2] = biological target: T2, panel of 371 human kinases (Homo sapiens, UniProt Q9H2X6); conditions: HIPK2; 0.1 μM; 10 μM ATP; read-out: % Enzyme Activity (relative to DMSO controls)
T2 construct: purchased Reaction Biology Corp
Description: as §1

[3] = biological target: T3, panel of 371 human kinases (Homo sapiens, UniProt Q9BZL6); conditions: PKD2/PRKD2; 0.1 μM; 10 μM ATP; read-out: % Enzyme Activity (relative to DMSO controls)
T3 construct: purchased Reaction Biology Corp
Description: as §1

[4] = biological target: T4, panel of 371 human kinases (Homo sapiens, UniProt P07948); conditions: LYN; 0.1 μM; 10 μM ATP; read-out: % Enzyme Activity (relative to DMSO controls)
T4 construct: purchased Reaction Biology Corp
Description: as §1

[5] = biological target: T5, panel of 371 human kinases (Homo sapiens, UniProt Q13233); conditions: MEKK1; 0.1 μM; 10 μM ATP; read-out: % Enzyme Activity (relative to DMSO controls)
T5 construct: purchased Reaction Biology Corp
Description: as §1

[6] = biological target: T6, panel of 371 human kinases (Homo sapiens, UniProt Q9NWZ3); conditions: IRAK4; 0.1 μM; 10 μM ATP; read-out: % Enzyme Activity (relative to DMSO controls)
T6 construct: purchased Reaction Biology Corp
T6 sequence (Q9NWZ3 whole entry): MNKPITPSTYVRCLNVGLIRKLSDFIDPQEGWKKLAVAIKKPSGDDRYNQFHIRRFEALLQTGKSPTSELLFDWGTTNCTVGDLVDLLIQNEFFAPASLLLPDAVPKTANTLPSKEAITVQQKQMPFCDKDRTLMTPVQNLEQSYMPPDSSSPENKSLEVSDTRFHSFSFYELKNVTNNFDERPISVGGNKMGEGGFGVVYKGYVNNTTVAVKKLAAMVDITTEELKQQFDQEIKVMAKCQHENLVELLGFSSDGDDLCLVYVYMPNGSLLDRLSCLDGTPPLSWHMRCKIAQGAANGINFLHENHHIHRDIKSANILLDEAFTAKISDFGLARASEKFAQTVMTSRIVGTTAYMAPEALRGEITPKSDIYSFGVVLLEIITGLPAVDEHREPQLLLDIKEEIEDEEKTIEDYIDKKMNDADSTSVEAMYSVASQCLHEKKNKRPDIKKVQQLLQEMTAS
Description: as §1

[7] = biological target: T7, panel of 371 human kinases (Homo sapiens, UniProt P11802); conditions: 0.1 μM, 10 μM ATP, read-out: % Enzyme Activity (relative to DMSO controls)
T7 construct: purchased Reaction Biology Corp
T7 sequence (P11802 whole entry): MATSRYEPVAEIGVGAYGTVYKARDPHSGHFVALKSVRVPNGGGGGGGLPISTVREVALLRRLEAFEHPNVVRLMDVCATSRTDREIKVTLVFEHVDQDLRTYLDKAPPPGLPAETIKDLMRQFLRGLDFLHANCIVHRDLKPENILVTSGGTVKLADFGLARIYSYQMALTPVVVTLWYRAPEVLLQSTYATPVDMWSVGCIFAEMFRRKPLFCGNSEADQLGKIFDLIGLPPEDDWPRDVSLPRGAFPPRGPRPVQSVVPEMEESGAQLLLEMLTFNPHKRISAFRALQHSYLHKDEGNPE
Description: as §1

[8] = biological target: T8, panel of 371 human kinases (Homo sapiens, UniProt P54756); conditions: EPHA5; 0.1 μM; 10 μM ATP; read-out: % Enzyme Activity (relative to DMSO controls)
T8 construct: purchased Reaction Biology Corp
Description: as §1

[9] = biological target: T9, panel of 371 human kinases (Homo sapiens, UniProt P29322); conditions: EPHA8; 0.1 μM; 10 μM ATP; read-out: % Enzyme Activity (relative to DMSO controls)
T9 construct: purchased Reaction Biology Corp
T9 sequence (P29322 28-1005): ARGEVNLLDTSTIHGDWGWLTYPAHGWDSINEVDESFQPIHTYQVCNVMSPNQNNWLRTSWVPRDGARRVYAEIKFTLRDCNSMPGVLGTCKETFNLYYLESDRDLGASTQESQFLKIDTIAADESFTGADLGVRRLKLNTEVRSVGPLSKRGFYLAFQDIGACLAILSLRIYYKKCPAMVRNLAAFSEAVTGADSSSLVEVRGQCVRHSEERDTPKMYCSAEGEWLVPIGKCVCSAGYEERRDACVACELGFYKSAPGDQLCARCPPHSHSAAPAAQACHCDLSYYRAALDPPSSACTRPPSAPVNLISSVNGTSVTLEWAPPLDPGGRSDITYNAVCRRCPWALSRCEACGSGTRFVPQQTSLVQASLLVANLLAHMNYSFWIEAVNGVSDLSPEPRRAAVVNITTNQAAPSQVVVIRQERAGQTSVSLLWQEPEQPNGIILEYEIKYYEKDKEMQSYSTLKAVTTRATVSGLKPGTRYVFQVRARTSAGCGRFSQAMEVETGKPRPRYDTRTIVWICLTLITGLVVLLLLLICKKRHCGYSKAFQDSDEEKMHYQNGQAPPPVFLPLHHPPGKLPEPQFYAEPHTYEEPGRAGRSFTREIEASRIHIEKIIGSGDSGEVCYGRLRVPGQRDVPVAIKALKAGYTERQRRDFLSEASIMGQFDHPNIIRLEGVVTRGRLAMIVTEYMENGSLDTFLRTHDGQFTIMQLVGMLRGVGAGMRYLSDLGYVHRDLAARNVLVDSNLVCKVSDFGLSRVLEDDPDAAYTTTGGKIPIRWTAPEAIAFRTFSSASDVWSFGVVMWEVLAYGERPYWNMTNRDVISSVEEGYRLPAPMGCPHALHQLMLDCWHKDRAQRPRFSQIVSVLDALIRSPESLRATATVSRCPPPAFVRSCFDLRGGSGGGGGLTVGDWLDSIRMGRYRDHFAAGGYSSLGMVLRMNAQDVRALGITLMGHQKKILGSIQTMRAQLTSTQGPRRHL
Description: as §1

[10] = biological target: T10, panel of 371 human kinases (Homo sapiens, UniProt P06239); conditions: LCK; 0.1 μM; 10 μM ATP; read-out: % Enzyme Activity (relative to DMSO controls)
T10 construct: purchased Reaction Biology Corp
Description: as §1

[11] = biological target: T11, panel of 371 human kinases (Homo sapiens, UniProt Q15208); conditions: STK38/NDR1; 0.1 μM; 10 μM ATP; read-out: % Enzyme Activity (relative to DMSO controls)
T11 construct: purchased Reaction Biology Corp
Description: as §1

[12] = biological target: T12, panel of 371 human kinases (Homo sapiens, UniProt O75582); conditions: MSK1/RPS6KA5; 0.1 μM; 10 μM ATP; read-out: % Enzyme Activity (relative to DMSO controls)
T12 construct: purchased Reaction Biology Corp
Description: as §1

[13] = biological target: T13, panel of 371 human kinases (Homo sapiens, UniProt Q5S007); conditions: LRRK2; 0.1 μM; 10 μM ATP; read-out: % Enzyme Activity (relative to DMSO controls)
T13 construct: purchased Reaction Biology Corp
Description: as §1

[14] = biological target: T14, panel of 371 human kinases (Homo sapiens, UniProt P49137); conditions: MAPKAPK2; 0.1 μM; 10 μM ATP; read-out: % Enzyme Activity (relative to DMSO controls)
T14 construct: purchased Reaction Biology Corp
T14 sequence (P49137 whole entry): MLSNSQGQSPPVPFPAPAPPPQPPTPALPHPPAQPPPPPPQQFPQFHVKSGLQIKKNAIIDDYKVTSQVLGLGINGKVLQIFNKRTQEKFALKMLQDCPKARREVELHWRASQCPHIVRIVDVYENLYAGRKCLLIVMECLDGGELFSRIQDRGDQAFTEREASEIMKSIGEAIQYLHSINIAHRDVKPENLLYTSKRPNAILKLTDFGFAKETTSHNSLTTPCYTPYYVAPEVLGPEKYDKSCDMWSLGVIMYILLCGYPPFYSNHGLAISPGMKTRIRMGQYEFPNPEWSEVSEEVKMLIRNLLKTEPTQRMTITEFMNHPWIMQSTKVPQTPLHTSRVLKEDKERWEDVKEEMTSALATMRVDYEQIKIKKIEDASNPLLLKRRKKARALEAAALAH
Description: as §1

[15] = biological target: T15, panel of 371 human kinases (Homo sapiens, UniProt Q6IQ55); conditions: TTBK2; 0.1 μM; 10 μM ATP; read-out: % Enzyme Activity (relative to DMSO controls)
T15 construct: purchased Reaction Biology Corp
Description: as §1

[16] = biological target: T16, panel of 371 human kinases (Homo sapiens, UniProt Q8NG66); conditions: NEK11; 0.1 μM; 10 μM ATP; read-out: % Enzyme Activity (relative to DMSO controls)
T16 construct: purchased Reaction Biology Corp
Description: as §1

[17] = biological target: T17, panel of 371 human kinases (Homo sapiens, UniProt Q9HBH9); conditions: MNK2; 0.1 μM; 10 μM ATP; read-out: % Enzyme Activity (relative to DMSO controls)
T17 construct: purchased Reaction Biology Corp
Description: as §1

[18] = biological target: T18, panel of 371 human kinases (Homo sapiens, UniProt Q15375); conditions: EPHA7; 0.1 μM; 10 μM ATP; read-out: % Enzyme Activity (relative to DMSO controls)
T18 construct: purchased Reaction Biology Corp
T18 sequence (Q15375 28-998): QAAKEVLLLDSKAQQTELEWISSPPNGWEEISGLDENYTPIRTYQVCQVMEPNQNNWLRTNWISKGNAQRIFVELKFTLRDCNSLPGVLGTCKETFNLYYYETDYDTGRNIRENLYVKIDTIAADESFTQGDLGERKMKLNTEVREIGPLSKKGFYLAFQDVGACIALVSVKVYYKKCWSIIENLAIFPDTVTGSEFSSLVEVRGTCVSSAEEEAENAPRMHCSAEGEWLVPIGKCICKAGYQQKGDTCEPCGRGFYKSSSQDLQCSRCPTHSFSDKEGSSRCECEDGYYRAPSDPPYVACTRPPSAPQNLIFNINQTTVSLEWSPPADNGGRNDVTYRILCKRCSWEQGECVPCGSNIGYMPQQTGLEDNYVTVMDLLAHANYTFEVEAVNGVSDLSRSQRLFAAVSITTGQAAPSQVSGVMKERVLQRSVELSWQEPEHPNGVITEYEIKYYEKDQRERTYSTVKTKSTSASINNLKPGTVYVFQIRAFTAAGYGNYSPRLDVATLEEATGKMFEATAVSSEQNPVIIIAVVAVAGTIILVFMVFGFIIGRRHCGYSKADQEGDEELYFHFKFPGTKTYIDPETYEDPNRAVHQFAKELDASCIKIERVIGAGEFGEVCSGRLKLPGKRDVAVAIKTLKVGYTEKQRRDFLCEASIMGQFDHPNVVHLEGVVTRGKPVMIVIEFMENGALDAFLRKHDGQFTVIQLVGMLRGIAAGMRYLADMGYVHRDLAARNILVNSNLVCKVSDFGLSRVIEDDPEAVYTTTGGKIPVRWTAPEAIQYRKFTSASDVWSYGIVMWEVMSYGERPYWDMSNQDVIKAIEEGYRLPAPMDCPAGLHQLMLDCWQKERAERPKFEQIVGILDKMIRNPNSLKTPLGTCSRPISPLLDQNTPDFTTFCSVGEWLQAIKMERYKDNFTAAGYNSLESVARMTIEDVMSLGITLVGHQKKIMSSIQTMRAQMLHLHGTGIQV
Description: as §1

[19] = biological target: T19, panel of 371 human kinases (Homo sapiens, UniProt Q14289); conditions: PYK2; 0.1 μM; 10 μM ATP; read-out: % Enzyme Activity (relative to DMSO controls)
T19 construct: purchased Reaction Biology Corp
Description: as §1

[20] = biological target: T20, panel of 371 human kinases (Homo sapiens, UniProt Q9H422); conditions: HIPK3; 0.1 μM; 10 μM ATP; read-out: % Enzyme Activity (relative to DMSO controls)
T20 construct: purchased Reaction Biology Corp
T20 sequence (Q9H422 whole entry): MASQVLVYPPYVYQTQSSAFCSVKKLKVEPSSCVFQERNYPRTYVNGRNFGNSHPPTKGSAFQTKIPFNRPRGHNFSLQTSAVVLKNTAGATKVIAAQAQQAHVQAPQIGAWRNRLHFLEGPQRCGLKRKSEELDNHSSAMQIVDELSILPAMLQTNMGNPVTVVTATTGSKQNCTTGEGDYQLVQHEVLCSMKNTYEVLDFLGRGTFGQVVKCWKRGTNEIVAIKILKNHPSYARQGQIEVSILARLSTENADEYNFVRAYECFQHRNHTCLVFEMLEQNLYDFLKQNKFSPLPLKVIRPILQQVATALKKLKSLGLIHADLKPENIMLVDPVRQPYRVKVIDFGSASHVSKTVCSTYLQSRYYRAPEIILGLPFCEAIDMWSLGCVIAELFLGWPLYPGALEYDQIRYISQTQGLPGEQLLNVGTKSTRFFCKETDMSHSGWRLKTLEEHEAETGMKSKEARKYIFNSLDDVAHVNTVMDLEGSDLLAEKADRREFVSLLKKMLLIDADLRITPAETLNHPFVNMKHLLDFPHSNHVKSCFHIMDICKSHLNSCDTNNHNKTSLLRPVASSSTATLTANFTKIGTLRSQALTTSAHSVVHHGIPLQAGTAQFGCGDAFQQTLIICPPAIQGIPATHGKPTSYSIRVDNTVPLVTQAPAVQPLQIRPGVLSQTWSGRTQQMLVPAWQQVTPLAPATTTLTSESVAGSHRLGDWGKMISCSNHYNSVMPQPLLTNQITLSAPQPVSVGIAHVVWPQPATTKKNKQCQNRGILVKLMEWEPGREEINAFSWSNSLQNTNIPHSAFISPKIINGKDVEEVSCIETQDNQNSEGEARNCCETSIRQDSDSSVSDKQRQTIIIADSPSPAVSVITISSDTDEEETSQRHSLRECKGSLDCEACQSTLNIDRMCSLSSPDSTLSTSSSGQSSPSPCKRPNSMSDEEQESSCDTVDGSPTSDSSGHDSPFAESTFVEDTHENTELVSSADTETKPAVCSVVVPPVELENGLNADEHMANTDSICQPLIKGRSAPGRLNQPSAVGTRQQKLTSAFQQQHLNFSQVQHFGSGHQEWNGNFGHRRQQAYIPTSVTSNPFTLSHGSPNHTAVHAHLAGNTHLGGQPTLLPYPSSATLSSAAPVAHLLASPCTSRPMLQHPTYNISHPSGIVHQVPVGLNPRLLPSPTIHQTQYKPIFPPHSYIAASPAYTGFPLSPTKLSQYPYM
Description: as §1

[21] = biological target: T21, panel of 371 human kinases (Homo sapiens, UniProt P35626); conditions: GRK3; 0.1 μM; 10 μM ATP; read-out: % Enzyme Activity (relative to DMSO controls)
T21 construct: purchased Reaction Biology Corp
T21 sequence (P35626 whole entry): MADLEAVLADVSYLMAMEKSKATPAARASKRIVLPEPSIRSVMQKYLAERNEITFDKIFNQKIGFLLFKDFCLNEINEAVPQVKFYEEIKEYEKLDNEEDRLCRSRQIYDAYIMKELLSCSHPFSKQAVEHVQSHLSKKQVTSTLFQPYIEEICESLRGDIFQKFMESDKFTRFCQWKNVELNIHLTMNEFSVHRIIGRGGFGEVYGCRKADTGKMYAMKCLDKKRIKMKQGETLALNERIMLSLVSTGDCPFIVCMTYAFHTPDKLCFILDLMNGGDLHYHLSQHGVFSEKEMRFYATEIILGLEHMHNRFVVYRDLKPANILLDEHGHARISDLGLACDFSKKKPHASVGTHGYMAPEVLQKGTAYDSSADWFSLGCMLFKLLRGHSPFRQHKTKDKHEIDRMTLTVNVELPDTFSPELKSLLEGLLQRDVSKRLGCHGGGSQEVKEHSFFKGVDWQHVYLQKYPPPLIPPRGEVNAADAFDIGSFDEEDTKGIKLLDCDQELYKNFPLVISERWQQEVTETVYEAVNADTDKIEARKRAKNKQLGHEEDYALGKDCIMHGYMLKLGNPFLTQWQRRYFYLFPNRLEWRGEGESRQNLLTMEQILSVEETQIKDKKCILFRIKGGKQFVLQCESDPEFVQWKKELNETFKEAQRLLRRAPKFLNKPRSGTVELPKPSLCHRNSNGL
Description: as §1

[22] = biological target: T22, panel of 371 human kinases (Homo sapiens, UniProt P27448); conditions: MARK3; 0.1 μM; 10 μM ATP; read-out: % Enzyme Activity (relative to DMSO controls)
T22 construct: purchased Reaction Biology Corp
Description: as §1

[23] = biological target: T23, panel of 371 human kinases (Homo sapiens, UniProt Q9NYL2); conditions: ZAK/MLTK; 0.1 μM; 10 μM ATP; read-out: % Enzyme Activity (relative to DMSO controls)
T23 construct: purchased Reaction Biology Corp
Description: as §1

[24] = biological target: T24, panel of 371 human kinases (Homo sapiens, UniProt Q06418); conditions: TYRO3/SKY; 0.1 μM; 10 μM ATP; read-out: % Enzyme Activity (relative to DMSO controls)
T24 construct: purchased Reaction Biology Corp
Description: as §1

| Structure (SMILES) | remaining activity at 0.1 µM [1] | remaining activity at 0.1 µM [2] | remaining activity at 0.1 µM [3] | remaining activity at 0.1 µM [4] | remaining activity at 0.1 µM [5] | remaining activity at 0.1 µM [6] | remaining activity at 0.1 µM ([7]; CDK4/cyclin D1) | remaining activity at 0.1 µM ([7]; CDK4/cyclin D3) | remaining activity at 0.1 µM [8] | remaining activity at 0.1 µM [9] | remaining activity at 0.1 µM [10] | remaining activity at 0.1 µM [11] | remaining activity at 0.1 µM [12] | remaining activity at 0.1 µM [13] | remaining activity at 0.1 µM [14] | remaining activity at 0.1 µM [15] | remaining activity at 0.1 µM [16] | remaining activity at 0.1 µM [17] | remaining activity at 0.1 µM [18] | remaining activity at 0.1 µM [19] | also measured |
| --- | --- | --- | --- | --- | --- | --- | --- | --- | --- | --- | --- | --- | --- | --- | --- | --- | --- | --- | --- | --- | --- |
| OCCN1CCN(Cc2ccc(-c3cnc4[nH]cc(-c5cccc(Cl)c5)c4c3)cc2)CC1 [Compound 12k, 2-(4-(4-(3-(3-Chlorophenyl)-1H-pyrrolo[2,3-b]pyridin-5-yl)benzyl)piperazin-1-yl)ethan-1-ol] | 92.4% | 95.7% | 9.36% | 99.3% | 94% | 95.4% | 56.4% | 67.2% | 98.8% | 93.5% | 98.8% | 71.9% | 98.4% | 17% | 99.6% | 103% | 101% | 65.2% | 91.3% | 89.2% | remaining activity at 0.1 µM [20]: 113%; remaining activity at 0.1 µM [21]: 104%; remaining activity at 0.1 µM [22]: 46.6%; remaining activity at 0.1 µM [23]: 77.9%; remaining activity at 0.1 µM [24]: 94.3% |
| CN1CCN(Cc2ccc(-c3cnc4[nH]cc(-c5ccc6[nH]ccc6c5)c4c3)cc2)CC1 [Compound 1, 3-(1H-Indol-5-yl)-5-(4-((4-methylpiperazin-1-yl)methyl)phenyl)-1H-pyrrolo[2,3-b]pyridine, reference compound] | 87.1% | 110% | 23.2% | 90.3% | 102% | 106% | 69.2% | 90.9% | 94.2% | 90.8% | 94.2% | 88.1% | 101% | 58.8% | 96.9% | 101% | 107% | 97.6% | 89.5% | 84.8% | remaining activity at 0.1 µM [20]: 103%; remaining activity at 0.1 µM [21]: 106%; remaining activity at 0.1 µM [22]: 83.2%; remaining activity at 0.1 µM [23]: 91.3%; remaining activity at 0.1 µM [24]: 86.8% |

From US12227500B2, “Substituted pyrrolo[2,3-b]pyridines for suppressing toxic endoplasmic reticulum stress” (THE TRUSTEES OF COLUMBIA UNIVERSITY IN THE CITY OF NEW YORK, priority 2018, dated 2025)
